What all share (assay): cAMP accumulation
Common to all, as to format: cell-based
Common to all, as to details: mean ± S.E.M.; for Emax: cAMP maximal response, SEM; for EC50: cAMP, CV1-FlpIn cells, 30 min, IBMX
A general note: Cyclic AMP is a second messenger, typically raised through Gs and lowered through Gi signalling.

One assay deals with T1, hCTR F356A (Homo sapiens, UniProt P30988, F356A).
T1 construct: c-Myc (N); expressed in transfected cells
T1 sequence (P30988 25-474 F356A): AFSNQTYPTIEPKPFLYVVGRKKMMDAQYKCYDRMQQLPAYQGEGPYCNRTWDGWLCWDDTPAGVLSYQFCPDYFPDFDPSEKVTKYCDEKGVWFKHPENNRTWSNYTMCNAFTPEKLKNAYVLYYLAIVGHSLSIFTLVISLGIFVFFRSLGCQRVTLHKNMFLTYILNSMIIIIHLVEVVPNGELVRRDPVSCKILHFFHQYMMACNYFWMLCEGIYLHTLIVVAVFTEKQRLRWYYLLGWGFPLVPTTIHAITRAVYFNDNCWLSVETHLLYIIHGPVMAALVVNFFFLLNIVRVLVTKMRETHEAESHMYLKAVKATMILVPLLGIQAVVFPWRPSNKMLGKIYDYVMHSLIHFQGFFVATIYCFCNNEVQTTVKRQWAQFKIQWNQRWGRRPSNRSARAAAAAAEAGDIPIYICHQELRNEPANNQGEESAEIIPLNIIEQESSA
The method, boiled down: (§1)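 30 min ligand stimulation with IBMX present; cells seeded overnight beforehand. Ethanol extract, dried at RT.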

A further assay has as its target T2, hCTR V358A (Homo sapiens, UniProt P30988, V358A).
T2 construct: c-Myc (N); expressed in transfected cells
T2 sequence (P30988 25-474 V358A): T1 sequence (P30988 25-474 F356A) with A332F, V334A
The method, boiled down:
as §1

In the next assay the target is T3, hCTR N286A (Homo sapiens, UniProt P30988, N286A).
T3 construct: c-Myc (N); expressed in transfected cells
T3 sequence (P30988 25-474 N286A): T1 sequence (P30988 25-474 F356A) with N262A, A332F
The method in brief: as §1

The next assay addresses T4, hCTR WT (Homo sapiens, UniProt P30988).
T4 construct: expressed in transfected cells
T4 sequence (P30988 25-474): T1 sequence (P30988 25-474 F356A) with A332F
The method, boiled down: as §1

A further assay concerns the target T5, hCTR M376A (Homo sapiens, UniProt P30988, M376A).
T5 construct: c-Myc (N); expressed in transfected cells
T5 sequence (P30988 25-474 M376A): T1 sequence (P30988 25-474 F356A) with A332F, M352A
The method, boiled down: as §1

Changes are numbered by the printed parent chain. Where a SMILES comes first, the peptide text is derived from it. Bridges are numbered along the chain shown (N, C = ends).

One may read the Emax as the size of the effect at its maximum, as opposed to the concentration needed. For the compound `CC(C)C[C@H](NC(=O)[C@H](CCCCN)NC(=O)CNC(=O)[C@H](CC(C)C)NC(=O)[C@@H](NC(=O)[C@@H]1CSSC[C@H](N)C(=O)N[C@@H](CO)C(=O)N[C@@H](CC(N)=O)C(=O)N[C@@H](CC(C)C)C(=O)N[C@@H](CO)C(=O)N[C@@H]([C@@H](C)O)C(=O)N1)C(C)C)C(=O)N[C@@H](CO)C(=O)N[C@@H](CCC(N)=O)C(=O)N[C@@H](CCC(=O)O)C(=O)N[C@@H](CC(C)C)C(=O)N[C@@H](Cc1c[nH]cn1)C(=O)N[C@@H](CCCCN)C(=O)N[C@@H](CC(C)C)C(=O)N[C@@H](CCC(N)=O)C(=O)N[C@H](C(=O)N[C@@H](Cc1ccc(O)cc1)C(=O)N1CCC[C@H]1C(=O)N[C@@H](CCCNC(=N)N)C(=O)N[C@H](C(=O)N[C@@H](CC(N)=O)C(=O)N[C@H](C(=O)NCC(=O)N[C@@H](CO)C(=O)NCC(=O)N[C@H](C(=O)N1CCC[C@H]1C(N)=O)[C@@H](C)O)[C@@H](C)O)[C@@H](C)O)[C@@H](C)O` [sCT], the Emax on hCTR F356A is 100 ± 1%; at hCTR V358A it was 139 ± 9%; at hCTR N286A, 103 ± 6%; at hCTR WT it was 100 ± 1%; on hCTR M376A, 102 ± 6%.

As usually defined, the EC50 is the concentration needed to bring the measured effect to its halfway point. Regarding `CSCC[C@H](NC(=O)CNC(=O)[C@H](CO)NC(=O)[C@H](Cc1ccccc1)NC(=O)[C@H](CCCNC(=N)N)NC(=O)[C@H](Cc1c[nH]cn1)NC(=O)[C@H](Cc1ccccc1)NC(=O)[C@H](CC(N)=O)NC(=O)[C@H](CC(N)=O)NC(=O)[C@H](CC(C)C)NC(=O)[C@H](CC(N)=O)NC(=O)[C@H](CCCNC(=N)N)NC(=O)[C@H](Cc1c[nH]c2ccccc12)NC(=O)[C@H](Cc1ccc(O)cc1)NC(=O)[C@H](C)NC(=O)[C@H](CO)NC(=O)[C@H](CC(C)C)NC(=O)[C@@H](NC(=O)[C@@H]1CSSC[C@H](N)C(=O)N[C@@H](CO)C(=O)N[C@@H](CC(N)=O)C(=O)N[C@@H](CC(C)C)C(=O)N[C@@H](CO)C(=O)N[C@@H]([C@@H](C)O)C(=O)N1)C(C)C)C(=O)NCC(=O)N[C@@H](Cc1ccccc1)C(=O)NCC(=O)N1CCC[C@H]1C(=O)N[C@@H](CCC(=O)O)C(=O)N[C@H](C(=O)N1CCC[C@H]1C(N)=O)[C@@H](C)O` [pCT] (H-CSNLSTCVLSAYWRNLNNFHRFSGMGFGPETP-NH2; disulfide 1-7), the Emax at hCTR F356A is 100 ± 2%; on hCTR V358A, 140 ± 15%; on hCTR N286A, 84 ± 6%; on hCTR WT, 100 ± 2%; at hCTR M376A, 87 ± 11%. Also, the EC50 is 0.0316 nM at hCTR F356A; 0.0316 nM at hCTR V358A; 0.2 nM at hCTR N286A; 0.0398 nM on hCTR WT; 0.234 nM at hCTR M376A.

Turning to `CC(C)C[C@H](NC(=O)[C@H](CC(N)=O)NC(=O)[C@H](CC(N)=O)NC(=O)[C@H](CO)NC(=O)[C@H](CO)NC(=O)[C@H](CCCNC(=N)N)NC(=O)[C@@H](NC(=O)[C@H](CC(C)C)NC(=O)[C@H](Cc1ccccc1)NC(=O)[C@H](CC(N)=O)NC(=O)[C@H](C)NC(=O)[C@H](CC(C)C)NC(=O)[C@H](CCCNC(=N)N)NC(=O)[C@H](CCC(N)=O)NC(=O)[C@@H](NC(=O)[C@H](C)NC(=O)[C@@H]1CSSC[C@H](NC(=O)[C@@H](N)CCCCN)C(=O)N[C@@H](CC(N)=O)C(=O)N[C@@H]([C@@H](C)O)C(=O)N[C@@H](C)C(=O)N[C@@H]([C@@H](C)O)C(=O)N1)[C@@H](C)O)C(C)C)C(=O)NCC(=O)N1CCC[C@H]1C(=O)N[C@H](C(=O)N[C@@H](CC(C)C)C(=O)N1CCC[C@H]1C(=O)N1CCC[C@H]1C(=O)N[C@H](C(=O)N[C@@H](CC(N)=O)C(=O)N[C@H](C(=O)NCC(=O)N[C@@H](CO)C(=O)N[C@@H](CC(N)=O)C(=O)N[C@H](C(=O)N[C@@H](Cc1ccc(O)cc1)C(N)=O)[C@@H](C)O)C(C)C)[C@@H](C)O)C(C)C` [rAmy], the Emax was found to be 126 ± 15% at hCTR F356A; 94 ± 13% at hCTR V358A; 97 ± 15% at hCTR N286A; 100 ± 4% at hCTR WT; 85 ± 13% on hCTR M376A.

Consider `CC(C)C[C@H](NC(=O)CNC(=O)[C@H](C)NC(=O)[C@H](CC(C)C)NC(=O)[C@H](CCCNC(=N)N)NC(=O)[C@H](Cc1cnc[nH]1)NC(=O)[C@@H](NC(=O)[C@@H](NC(=O)[C@@H]1CSSC[C@H](NC(=O)[C@H](C)N)C(=O)N[C@@H](CC(=O)O)C(=O)N[C@@H]([C@@H](C)O)C(=O)N[C@@H](C)C(=O)N[C@@H]([C@@H](C)O)C(=O)N1)C(C)C)[C@@H](C)O)C(=O)N[C@@H](CC(C)C)C(=O)N[C@@H](CO)C(=O)N[C@@H](CCCNC(=N)N)C(=O)N[C@@H](CO)C(=O)NCC(=O)NCC(=O)N[C@H](C(=O)N[C@H](C(=O)N[C@@H](CCCCN)C(=O)N[C@@H](CC(N)=O)C(=O)N[C@@H](CC(N)=O)C(=O)N[C@@H](Cc1ccccc1)C(=O)N[C@H](C(=O)N1CCC[C@H]1C(=O)N[C@H](C(=O)N[C@@H](CC(N)=O)C(=O)N[C@H](C(=O)NCC(=O)N[C@@H](CO)C(=O)N[C@@H](CCCCN)C(=O)N[C@@H](C)C(=O)N[C@@H](Cc1ccccc1)C(N)=O)C(C)C)[C@@H](C)O)C(C)C)C(C)C)C(C)C` [hαCGRP], for which the Emax at hCTR F356A amounted to 128 ± 10%; on hCTR V358A it was 74 ± 9%; on hCTR N286A, 46 ± 16%; at hCTR WT it was 100 ± 7%; at hCTR M376A, 47 ± 7%. Besides, the EC50 is 66.1 nM at hCTR F356A; 20.9 nM at hCTR V358A; 14.1 nM on hCTR N286A; 11 nM on hCTR WT; 141 nM at hCTR M376A.

Values taken from publication PMC5908784, “Extracellular loops 2 and 3 of the calcitonin receptor selectively modify agonist binding and efficacy” (Biochemical Pharmacology, 2018).
